Measurements: the NIST ThermoML archive (doi:10.1016/j.jct.2005.10.019)

What was measured:
[1] = excess molar enthalpy (molar enthalpy of mixing); xn = mol fraction of the nth substance listed; details: 298.15 K, 101 kPa, Liquid
[2] = 298.15 K; 101.33 kPa; Liquid

C[C@@H]1COC(=O)O1 [(R)-4-methyl-1,3-dioxolan-2-one] + C[C@H]1COC(=O)O1
[1]
Details | excess molar enthalpy [kcal/mol]
x2 = 0.02206 | -0.000169
x2 = 0.04317 | -0.000327
x2 = 0.06338 | -0.00048
x2 = 0.06919 | -0.00046
x2 = 0.08276 | -0.000615
x2 = 0.1014 | -0.000734
x2 = 0.1192 | -0.000848
x2 = 0.1294 | -0.000859
x2 = 0.1364 | -0.000953
x2 = 0.1529 | -0.00105
x2 = 0.1688 | -0.00114
x2 = 0.1823 | -0.00115
x2 = 0.1841 | -0.00122
x2 = 0.1988 | -0.00129
x2 = 0.213 | -0.00136
x2 = 0.2268 | -0.00142
x2 = 0.2292 | -0.00143
x2 = 0.2709 | -0.00163
x2 = 0.3084 | -0.0017
x2 = 0.3422 | -0.00178
x2 = 0.3673 | -0.00185
x2 = 0.3729 | -0.00186
x2 = 0.3988 | -0.00191
x2 = 0.4008 | -0.00191
x2 = 0.4264 | -0.00196
x2 = 0.4363 | -0.00197
x2 = 0.4366 | -0.00198
x2 = 0.4627 | -0.00203
x2 = 0.4815 | -0.00201
x2 = 0.4921 | -0.00205
x2 = 0.5254 | -0.00205
x2 = 0.5372 | -0.00199
x2 = 0.5551 | -0.002
x2 = 0.5959 | -0.00197
x2 = 0.6186 | -0.00195
x2 = 0.6431 | -0.00192
x2 = 0.6596 | -0.00184
x2 = 0.6697 | -0.00184
x2 = 0.6985 | -0.00176
x2 = 0.699 | -0.0017
x2 = 0.7209 | -0.00166
x2 = 0.73 | -0.00162
x2 = 0.7641 | -0.00146
x2 = 0.7644 | -0.00151
x2 = 0.7782 | -0.0014
x2 = 0.7929 | -0.00133
x2 = 0.7949 | -0.00133
x2 = 0.7997 | -0.00129
x2 = 0.8022 | -0.00132
x2 = 0.8081 | -0.00126
x2 = 0.8122 | -0.00124
x2 = 0.8228 | -0.00114
x2 = 0.8239 | -0.00118
x2 = 0.8252 | -0.00118
x2 = 0.8385 | -0.00111
x2 = 0.8404 | -0.00109
x2 = 0.8439 | -0.00109
x2 = 0.8522 | -0.00104
x2 = 0.8575 | -0.000996
x2 = 0.8665 | -0.000943
x2 = 0.8753 | -0.00089
x2 = 0.8812 | -0.000858
x2 = 0.8857 | -0.000833
x2 = 0.8902 | -0.000801
x2 = 0.8939 | -0.000772
x2 = 0.8964 | -0.000764
x2 = 0.9121 | -0.00066
x2 = 0.9133 | -0.000646
x2 = 0.9285 | -0.000551
x2 = 0.9335 | -0.000502
x2 = 0.9419 | -0.00044
x2 = 0.9454 | -0.000425
x2 = 0.9547 | -0.00035
x2 = 0.9629 | -0.000295
x2 = 0.9768 | -0.000184
x2 = 0.9811 | -0.000151

C[C@@H](O)c1ccccc1 [(R)-(+)-1-phenylethanol]
Details | mass density [kg/m3]
[2] | 1012.4

C[C@@H](NCc1ccccc1)c1ccccc1 [(R)-(+)-N-benzyl-1-phenylethylamine]
Details | mass density [kg/m3]
[2] | 1007.7

C[C@@H](N)c1ccccc1 [(R)-(+)-α-methylbenzylamine]
Details | mass density [kg/m3]
[2] | 965.38

C[C@H]1COC(=O)O1 [(S)-4-methyl-1,3-dioxolan-2-one]
Details | mass density [kg/m3]
[2] | 1199.5

C[C@H](O)c1ccccc1 [(S)-(-)-1-phenylethanol]
Details | mass density [kg/m3]
[2] | 1012.3
